Measured values reported in the supplement of paper PMC10307832.

Tests used:
Assay in all cases: relative viability (nuclei count vs DMSO), 5 days (fraction); higher = more cells survive
[1] = compound: O=C1NC(=O)[C@@H](c2cn3c4c(cccc24)CCC3)[C@@H]1c1c[nH]c2ccccc12 [Tivantinib]
Summary of the method: (§1)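 After an overnight hold at 37 °C, lung cancer cell lines in 1536-well plates were pinned with five library-drug doses (not always all listed), each √10 from the next, on vehicle-anchored plates. The cells stayed 5 days without fresh medium, then a one-step fix, permeabilisation and Hoechst stain preceded 4× imaging and MetaXpress nuclear counts. A plate passed only with control CV under 25% and at least one doubling. Viability is the median, over plates, of treated-well nuclei relative to vehicle-well nuclei.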

[2] = compound: CC1(COc2ccc3c(c2)ncn3-c2ccc3cccc(N4CCC(N)CC4)c3n2)COC1 [Crenolanib]
Summary of the method: as §1

[3] = compound: CC1(COc2ccc3c(c2)ncn3-c2ccc3cccc(N4CCC(N)CC4)c3n2)COC1 [Crenolanib] + Nc1ncn([C@H]2C[C@H](O)[C@@H](CO)O2)c(=O)n1 [Decitabine] (partner 2 µM)
Summary of the method: (§2)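 Dosing by pin tool came one day after lung cancer cell lines were seeded in 1536-well plates, using either one drug or a fixed anchor-drug dose plus five library-drug doses (not always all listed) in √10 steps. After 5 days, nuclei were counted on 4× images. Relative viability is treated-well nuclei count divided by vehicle-well nuclei count, and values are medians of duplicate plates.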

[4] = compound: O=C1NC(=O)[C@@H](c2cn3c4c(cccc24)CCC3)[C@@H]1c1c[nH]c2ccccc12 [Tivantinib] + C[C@]1(O)C[C@@H](c2nc(-c3ccc4ccc(-c5ccccc5)nc4c3)c3c(N)nccn32)C1 [Linsitinib] (partner 1 µM)
Summary of the method: as §2

UMC-11
relative viability ([1]; 0.01 µM): 0.966
relative viability ([1]; 0.03162 µM): 0.842
relative viability ([1]; 0.1 µM): 0.923
relative viability ([1]; 0.3162 µM): 1.03
relative viability ([2]; 0.01 µM): 0.963
relative viability ([2]; 0.03162 µM): 0.978
relative viability ([2]; 0.1 µM): 0.972
relative viability ([2]; 0.3162 µM): 1.01
relative viability ([2]; 1 µM): 0.931
relative viability ([3]; first compound 0.01 µM): 0.669
relative viability ([3]; first compound 0.03162 µM): 0.578
relative viability ([3]; first compound 0.1 µM): 0.627
relative viability ([3]; first compound 0.3162 µM): 0.588
relative viability ([3]; first compound 1 µM): 0.557
relative viability ([4]; first compound 0.01 µM): 0.974
relative viability ([4]; first compound 0.03162 µM): 0.979
relative viability ([4]; first compound 0.1 µM): 0.943
relative viability ([4]; first compound 0.3162 µM): 1
